What all share (experiment): inhibition of tumour cell growth, NCI panel, 48 h
The test system of assay [1] is A498.
The subject of assay [2] is A549.
The subject of assay [3] is ACHN.
Assay [4] has as its system COLO 205.
Assay [5] concerns LOX IMVI.
Assay [6] relates to M14.
In assay [7] the test system is MOLT-4.
The test system of assay [8] is NCI-H460.
Assay [9] concerns OVCAR-4.
In assay [10] the test system is OVCAR-8.
Assay [11] has as its system RPMI-8226.
Assay [12] deals with SF-268.
The subject of assay [13] is SK-MEL-28.
Assay [14] deals with SN12C.
The subject of assay [15] is SNB-19.
Assay [16] relates to U-251.
Assay [17] concerns UACC-257.
The subject of assay [18] is MDA-N.
For assay [19], the system named is PC-3.

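Test compounds were applied to cells in 96-well plates for 48 hours at 5 doses. At the GI50, growth is halved.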 Calls of active or inactive are those of the source. Rule as the data show it: active = GI50 up to about 1.1 µM and inactive = higher.

On to `CC(C)(C)c1cc2c(OP(c3ccccc3)c3ccccc3)c(c1)Cc1cc(C(C)(C)C)cc(c1OP(c1ccccc1)c1ccccc1)Cc1cc(C(C)(C)C)cc(c1OP(c1ccccc1)c1ccccc1)Cc1cc(C(C)(C)C)cc(c1OP(c1ccccc1)c1ccccc1)C2`, for which the GI50 in assay [1], in assay [2], in assay [3], in assay [4], in assay [5] and in assay [6] was > 5 µM (inactive) throughout. The GI50 in [7], in [8], in assay [9], in [10], in assay [11] and in assay [12] was > 5 µM (inactive) in each case. Moreover, the GI50 in assay [13], in assay [14], in [15], in assay [16] and in assay [17] was > 5 µM (inactive) each time.
As to `Cc1nc2ccc(Br)cc2c(=O)n1-c1nnc(C(C)(C)C)s1`, the GI50 in assay [2], in assay [3], in assay [4], in assay [5], in assay [6] and in assay [18] was > 10 µM (inactive) in each case. Also, the GI50 in [7], in assay [8], in assay [9], in [10], in assay [19] and in assay [11] was > 10 µM (inactive) each time. Moreover, the GI50 in assay [12], in [13], in assay [14], in assay [15], in [16] and in assay [17] was > 10 µM (inactive) each time.
Consider `O=C(CC1(O)C(=O)Nc2ccccc21)c1ccccc1O` (stereo unspecified), for which the GI50 in [1], in assay [2], in [3], in [4], in assay [5] and in assay [6] was > 100 µM (inactive) each time. Also, the GI50 in assay [7], in [8], in assay [9], in assay [10], in assay [11] and in assay [12] was > 100 µM (inactive) in each case. The GI50 in assay [13], in assay [14], in assay [15] and in assay [17] was > 100 µM (inactive) in each case.
On to `NC(=O)C12CC3CC(CC(Br)(C3)C1)C2`, for which the GI50 in assay [1], in assay [2], in [3], in assay [5], in assay [6] and in [7] was > 100 µM (inactive) throughout. For the same compound, the GI50 in assay [8], in [9], in assay [10], in [11], in assay [12] and in assay [13] was > 100 µM (inactive) in each case. The GI50 in assay [14], in assay [15], in [16] and in [17] was > 100 µM (inactive) in each case.
For the compound `CC1(Sc2ccccc2)CN(Cc2ccccc2)C1=O` (stereo unspecified), the GI50 in [1], in assay [2], in assay [3], in assay [4], in assay [5] and in assay [6] was > 100 µM (inactive) in each case. In addition, the GI50 in [7] was 49.7 µM (inactive); in assay [8], > 100 µM (inactive); in [9], 88.5 µM (inactive); in [10], > 100 µM (inactive); in assay [11] it was 57.3 µM (inactive); in assay [12], > 100 µM (inactive). The GI50 in assay [13] is > 100 µM (inactive); in assay [14] it was > 100 µM (inactive); in [15], > 100 µM (inactive); in assay [16] it was > 100 µM (inactive); in assay [17] it was 54.5 µM (inactive).
Turning to `C[C@@H](O)CCC(=O)c1ccoc1`, the GI50 in [1], in [2], in [3], in [4], in assay [5] and in [6] was > 100 µM (inactive) throughout. Also, the GI50 in assay [7], in [8], in assay [9], in [10], in [11] and in assay [12] was > 100 µM (inactive) throughout. The GI50 in assay [13], in assay [14], in [15], in assay [16] and in assay [17] was > 100 µM (inactive) in each case.
`NC[C@H]1Nc2ccccc2[C@@H](O)C1O` (stereo partly specified): the GI50 in assay [2], in assay [3], in assay [4], in [5], in assay [6] and in assay [18] was > 100 µM (inactive) each time. The GI50 in assay [7], in assay [8], in assay [9], in assay [10], in [19] and in [11] was > 100 µM (inactive) in each case. The GI50 in [12], in assay [13], in [14], in assay [15], in assay [16] and in assay [17] was > 100 µM (inactive) throughout.
Take `COc1ccc(C)cc1-c1cc(Sc2ccccc2)c(-c2cc(C)ccc2OC)o1`: the GI50 is > 31.6 µM (inactive) in assay [1]; > 31.6 µM (inactive) in assay [2]; > 31.6 µM (inactive) in assay [3]; > 31.6 µM (inactive) in assay [4]; > 100 µM (inactive) in assay [5]; > 31.6 µM (inactive) in assay [6]. Moreover, the GI50 in assay [7], in assay [8], in [9], in [10], in assay [11] and in assay [12] was > 31.6 µM (inactive) each time. For the same compound, the GI50 in assay [13], in assay [14], in assay [15], in [16] and in assay [17] was > 31.6 µM (inactive) in each case.
Consider `O/N=C1/C(=C/c2ccccc2)CCCC1C(NO)c1ccccc1` (stereo unspecified), for which the GI50 in assay [1] is > 100 µM (inactive); in assay [2], 40.1 µM (inactive); in assay [3], 68.4 µM (inactive); in [4] it was > 100 µM (inactive); in assay [5], > 100 µM (inactive); in assay [6], 84.9 µM (inactive). For the same compound, the GI50 in assay [7] was 26.4 µM (inactive); in assay [8], 79.6 µM (inactive); in assay [9], 31.3 µM (inactive); in [10], 64 µM (inactive); in assay [11], 35.5 µM (inactive); in assay [12], 55.7 µM (inactive). In addition, the GI50 in assay [13] is > 100 µM (inactive); in [14], 69.8 µM (inactive); in assay [15], 91.4 µM (inactive); in [16], > 10 µM (inactive); in [17], 38.5 µM (inactive).
For `COC(=O)n1c(C[P+](c2ccccc2)(c2ccccc2)c2ccccc2)cc2ccccc21`, the GI50 was 7.26 µM (inactive) in assay [1]; 2.22 µM (inactive) in [2]; 3.87 µM (inactive) in assay [3]; 1.26 µM (inactive) in assay [4]; 1.07 µM (active) in assay [5]; 1.13 µM (inactive) in assay [6]. Further, the GI50 in assay [7] was 1.64 µM (inactive); in assay [8] it was 1.43 µM (inactive); in assay [9], 5.92 µM (inactive); in [10] it was 0.566 µM (active); in [11] it was 0.352 µM (active); in [12] it was 2.93 µM (inactive). Further, the GI50 in assay [13] is 4.16 µM (inactive); in assay [14], 2.26 µM (inactive); in [15], 1.31 µM (inactive); in assay [16], 2.81 µM (inactive).
For `CCn1ncc2c1nc(-c1ccccc1)c[n+]2[O-]`, the GI50 in assay [2] is > 100 µM (inactive); in [3], > 100 µM (inactive); in [4], > 100 µM (inactive); in [5], 7.01 µM (inactive); in assay [6] it was 77.6 µM (inactive); in assay [7], > 100 µM (inactive). For the same compound, the GI50 in assay [8] is > 100 µM (inactive); in assay [10], 75 µM (inactive); in [19], > 100 µM (inactive); in assay [11], > 100 µM (inactive); in assay [12], > 100 µM (inactive); in assay [13], > 100 µM (inactive). The GI50 in assay [14], in [15] and in assay [17] was > 100 µM (inactive) in each case.
As for `COC(=O)C12Oc3ccc(-c4ccc5c(c4O)C(=O)C4=CCC(C)C(O)C4(C(=O)OC)O5)c(O)c3C(=O)C1=CCC(C)C2O` (stereo unspecified), the GI50 in assay [1] was 2.19 µM (inactive); in [2], 1.94 µM (inactive); in assay [3] it was 1.34 µM (inactive); in [4], 1.32 µM (inactive); in [5], 1.49 µM (inactive); in assay [6] it was 1.63 µM (inactive). Moreover, the GI50 in assay [7] is 5.66 µM (inactive); in assay [8], 1.97 µM (inactive); in assay [9] it was 2.21 µM (inactive); in assay [10], 0.964 µM (active); in assay [11] it was 0.897 µM (active); in [12], 1.1 µM (active). In addition, the GI50 is 1.67 µM (inactive) in assay [13]; 1.98 µM (inactive) in [14]; 2.34 µM (inactive) in [15]; 1.59 µM (inactive) in assay [16]; 1.82 µM (inactive) in assay [17].

These data come from ChEMBL document CHEMBL1201862, “PubChem BioAssay data set” (2004).
